Measurements published in the NIST ThermoML archive (doi:10.1021/je9008206).
± gives the expanded uncertainty stated by the source.

Legend:
[1] = Crystal; DTA
[2] = Molar enthalpy of transition or fusion; details: Crystal; DSC

O=C1OC(=O)c2c(Cl)cccc21 [3-chlorophthalic anhydride]
Normal melting temperature [1]: 124.80 ± 0.53 °C | Molar enthalpy of transition or fusion [2]: 3.19 ± 0.206 kcal/mol

O=C1OC(=O)c2cc(Cl)ccc21 [4-chlorophthalic anhydride]
Normal melting temperature [1]: 94.20 ± 0.53 °C | Molar enthalpy of transition or fusion [2]: 7.9 ± 0.239 kcal/mol
